Measurements: paper PMC4608362, “The therapeutic effect of chlorogenic acid against Staphylococcus aureus infection through sortase A inhibition” (Frontiers in Microbiology, 2015)

Tests used:
Details in all cases: read-out: Binding constants KA (1 × 10^5) L⋅mol^-1 (converted)
Sortase A (SrtA) [1] = molecular target: T1, Sortase A (SrtA) (Staphylococcus aureus, UniProt Q2FV99, C184A); test: fluorescence spectroscopy quenching with purified mutant, binding constant KA, n = […]
T1 construct: SrtAΔN59 (residues 60–206)

Sortase A (SrtA) [2] = molecular target: T2, Sortase A (SrtA) (Staphylococcus aureus, UniProt Q2FV99, G192A); test: as above
T2 construct: SrtAΔN59 (residues 60–206)

Sortase A (SrtA) [3] = molecular target: T3, Sortase A (SrtA) (Staphylococcus aureus, UniProt Q2FV99); test: fluorescence spectroscopy quenching, binding constant KA, n = […]; also FRET inhibition of purified SrtAΔN59 (IC50 […])
T3 construct: SrtAΔN59 (residues 60–206)

Structure (SMILES): O=C(/C=C/c1ccc(O)c(O)c1)O[C@@H]1C[C@](O)(C(=O)O)C[C@@H](O)[C@H]1O [CHA, chlorogenic acid]
- Kd (Sortase A (SrtA) [1]): 2130 nM
- Kd (Sortase A (SrtA) [2]): 2000 nM
- Kd (Sortase A (SrtA) [3]): 1120 nM
